Three molecules from ChEMBL document CHEMBL5528078, “Structural Basis for Molecular Recognition of Cannabinoids by Inhibitory Cys-Loop Channels” (J Med Chem, 2024) can be followed below.

In series [1] the target is T1, Glycine receptor subunit alpha-1 (Homo sapiens, UniProt P23415).
T1 sequence (P23415 whole entry): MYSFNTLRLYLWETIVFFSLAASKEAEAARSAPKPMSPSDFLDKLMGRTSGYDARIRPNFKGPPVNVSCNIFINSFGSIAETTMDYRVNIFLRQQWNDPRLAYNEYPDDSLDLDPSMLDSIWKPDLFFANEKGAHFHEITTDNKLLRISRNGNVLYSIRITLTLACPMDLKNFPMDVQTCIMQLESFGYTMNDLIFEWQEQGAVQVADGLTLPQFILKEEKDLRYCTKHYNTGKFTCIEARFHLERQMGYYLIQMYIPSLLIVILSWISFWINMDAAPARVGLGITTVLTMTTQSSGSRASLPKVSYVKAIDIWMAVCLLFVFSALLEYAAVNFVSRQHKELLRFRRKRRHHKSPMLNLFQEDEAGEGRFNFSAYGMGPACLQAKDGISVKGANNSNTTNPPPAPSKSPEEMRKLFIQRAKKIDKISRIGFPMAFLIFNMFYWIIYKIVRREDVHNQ
The experiment in a line: Inhibition of human […] glycine receptor alpha 1 expressed in HEK293 cells. In kind it is cell-based.

Series [2] concerns the target T2, Glycine receptor subunit alpha-2 (Homo sapiens, UniProt P23416).
T2 sequence (P23416 whole entry): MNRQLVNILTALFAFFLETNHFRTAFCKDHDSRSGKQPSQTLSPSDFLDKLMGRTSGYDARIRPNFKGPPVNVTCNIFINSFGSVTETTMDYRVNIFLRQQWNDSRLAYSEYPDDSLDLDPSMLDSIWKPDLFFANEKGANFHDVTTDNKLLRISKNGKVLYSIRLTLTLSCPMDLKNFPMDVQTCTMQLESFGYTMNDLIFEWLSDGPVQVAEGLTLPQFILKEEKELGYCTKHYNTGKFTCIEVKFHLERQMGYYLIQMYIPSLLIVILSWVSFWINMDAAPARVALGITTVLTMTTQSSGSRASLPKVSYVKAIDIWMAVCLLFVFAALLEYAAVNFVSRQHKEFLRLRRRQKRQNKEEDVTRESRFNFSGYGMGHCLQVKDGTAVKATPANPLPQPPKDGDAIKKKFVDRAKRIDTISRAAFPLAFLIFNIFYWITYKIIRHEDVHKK
Kind of series: Inhibition of human […] glycine receptor alpha 2 expressed in HEK293 cells. Format: cell-based.

Series [3] in a line: Cytotoxicity against HEK293 cells assessed as inhibition of cell growth incubated for 48 hrs by CCK8 assay. Format: toxicity, cell-based. The note with it: human. (In general: Tetrazolium assays rely on reduction of a dye to a coloured formazan, in cell work by metabolically active cells.)
Series [4] in a line: Inhibition of […] glycine receptor (unknown origin) expressed in HEK293 cells. In kind it is cell-based, Homo sapiens.

In turn, `CCCCCCC(C)(C)c1cc(O)c2c(c1)OC(C)(C)[C@@H]1CC=C(CO)C[C@@H]21` gave an IC50 in series [1] of 2700 nM.

As to `C=C(C)[C@@H]1CCC(C)=C[C@H]1c1c(O)cc(CCCCC)cc1O` [CANNABIDIOL], the IC50 in series [2] turned out to be 2700 nM. Moreover, the EC50 at 48 h in series [3] was 12000 nM.

`CCCCCc1cc(O)c2c(c1)OC(C)(C)[C@@H]1CCC(C)=C[C@@H]21` [DRONABINOL] gave an IC50 in series [4] of 2700 nM.

Broadly, the IC50 is the concentration that gives 50% inhibition. Lower therefore signals higher potency. As a reminder, the EC50 is the midpoint of the concentration-response curve.
